Experiments:
[1] = Elimination of the molecules: cumulative urinary and faecal excretion 0-72 hours; type: in vivo, mouse
tumour = assay: Dosimetry with regard to the tumour (MIRD programme, extrapolated to ^131I)
[2] = tested on: grafted B16 F0 murine melanoma tumour; assay: Biodistribution of the ^125I-labelled molecules in the melanoma-bearing mouse (autoradiography of whole-body sections); details: for Concentration of radioactivity, B 16 (tumour), Mean / Concentration of radioactivity, Ic (intestinal contents), Mean / Concentration of radioactivity, Sc (stomach contents), Mean / Concentration of radioactivity, blood (measured in the heart cavity), Mean / Concentration of radioactivity, brain, Mean / Concentration of radioactivity, kidney, Mean / Concentration of radioactivity, liver, Mean / Concentration of radioactivity, lungs, Mean / Concentration of radioactivity, muscle (skeletal muscle), Mean / Concentration of radioactivity, pancreas, Mean / Concentration of radioactivity, spleen, Mean / Concentration of radioactivity, uvea (pigmented tissues of the eye), Mean: ^125I-labelled compound

## CCN(CC)CCNC(=O)c1ccc2cc(I)ccc2n1.Cl.Cl [compound 31, N-(2-diethylaminoethyl)-6-iodoquinoline-2-carboxamide dihydrochloride]
[1]; cumulative excretion 0-72 hours, faeces, mice in metabolic cages
  Faecal elimination 0-72 hours (Faeces): 11.4%
[1]; cumulative excretion 0-72 hours, urine + faeces
  Urinary and faecal elimination 0-72 hours (Total): 91.2%
[1]; cumulative excretion 0-72 hours, urine, mice in metabolic cages
  Urinary elimination 0-72 hours (Urine): 80.7%
[1]; urinary versus faecal, 0-72 hours
  elimination route (in words): predominantly in the urine
tumour; extrapolated to 131I labelling
  Effective period: 31.8 h
tumour; from biodistribution data
  Biological period: 38.0 hours
[2]; 1 H after i.v. administration
  Concentration of radioactivity, B 16 (tumour), Mean: 19.63 % ID/g
  Concentration of radioactivity, Ic (intestinal contents), Mean: 15.78 % ID/g
  Concentration of radioactivity, Sc (stomach contents), Mean: 48.03 % ID/g
  Concentration of radioactivity, blood (measured in the heart cavity), Mean: 7.01 % ID/g
  Concentration of radioactivity, brain, Mean: 1.96 % ID/g
  Concentration of radioactivity, kidney, Mean: 11.82 % ID/g
  Concentration of radioactivity, liver, Mean: 10.92 % ID/g
  Concentration of radioactivity, lungs, Mean: 9.41 % ID/g
  Concentration of radioactivity, muscle (skeletal muscle), Mean: 1.79 % ID/g
  Concentration of radioactivity, pancreas, Mean: 9.80 % ID/g
  Concentration of radioactivity, spleen, Mean: 11.56 % ID/g
  Concentration of radioactivity, uvea (pigmented tissues of the eye), Mean: 32.71 % ID/g
[2]; 3 H after i.v. administration
  Concentration of radioactivity, B 16 (tumour), Mean: 25.35 % ID/g
  Concentration of radioactivity, Ic (intestinal contents), Mean: 20.65 % ID/g
  Concentration of radioactivity, Sc (stomach contents), Mean: 34.72 % ID/g
  Concentration of radioactivity, blood (measured in the heart cavity), Mean: 5.57 % ID/g
  Concentration of radioactivity, brain, Mean: 0.83 % ID/g
  Concentration of radioactivity, kidney, Mean: 12.59 % ID/g
  Concentration of radioactivity, liver, Mean: 8.89 % ID/g
  Concentration of radioactivity, lungs, Mean: 5.58 % ID/g
  Concentration of radioactivity, muscle (skeletal muscle), Mean: 1.14 % ID/g
  Concentration of radioactivity, pancreas, Mean: 6.17 % ID/g
  Concentration of radioactivity, spleen, Mean: 10.63 % ID/g
  Concentration of radioactivity, uvea (pigmented tissues of the eye), Mean: 33.10 % ID/g
[2]; 6 H after i.v. administration
  Concentration of radioactivity, B 16 (tumour), Mean: 17.21 % ID/g
  Concentration of radioactivity, Ic (intestinal contents), Mean: 23.36 % ID/g
  Concentration of radioactivity, Sc (stomach contents), Mean: 65.36 % ID/g
  Concentration of radioactivity, blood (measured in the heart cavity), Mean: 5.91 % ID/g
  Concentration of radioactivity, brain, Mean: 0.37 % ID/g
  Concentration of radioactivity, kidney, Mean: 7.60 % ID/g
  Concentration of radioactivity, liver, Mean: 7.11 % ID/g
  Concentration of radioactivity, lungs, Mean: 5.32 % ID/g
  Concentration of radioactivity, muscle (skeletal muscle), Mean: 0.95 % ID/g
  Concentration of radioactivity, spleen, Mean: 7.60 % ID/g
  Concentration of radioactivity, uvea (pigmented tissues of the eye), Mean: 36.62 % ID/g
[2]; 24 H after i.v. administration
  Concentration of radioactivity, B 16 (tumour), Mean: 12.13 % ID/g
  Concentration of radioactivity, Ic (intestinal contents), Mean: 1.45 % ID/g
  Concentration of radioactivity, Sc (stomach contents), Mean: 2.33 % ID/g
  Concentration of radioactivity, kidney, Mean: 0.34 % ID/g
  Concentration of radioactivity, liver, Mean: 2.25 % ID/g
  Concentration of radioactivity, lungs, Mean: 0.53 % ID/g
  Concentration of radioactivity, spleen, Mean: 2.66 % ID/g
  Concentration of radioactivity, uvea (pigmented tissues of the eye), Mean: 22.27 % ID/g
[2]; 72 H after i.v. administration
  Concentration of radioactivity, B 16 (tumour), Mean: 5.93 % ID/g
  Concentration of radioactivity, liver, Mean: 1.23 % ID/g
  Concentration of radioactivity, spleen, Mean: 1.85 % ID/g
  Concentration of radioactivity, uvea (pigmented tissues of the eye), Mean: 18.30 % ID/g
[2]; at 72 hours (FIG. 1B)
  tumour concentration, times higher than with BZA: 8 times
[2]; from the first hour
  tumour concentration, % of the injected dose per gram of tumour: 19.6 % ID/g

— patent US20100061928A1, “LABELLED ANALOGUES OF HALOBENZAMIDES AS RADIOPHARMACEUTICALS” (Institut National De La Sante et De La Recherche Medicale …, priority 2006, published 2010)
